The SangsterLogP compilation
One block for each compound: values may come before it.

Assays:
[1] = method code SF-AS, from PMID: 2160644
[2] = method code SF-AS, from DOI: 10.1016/0223-5234(93)90135-2; conditions: pH 12.0
[3] = method code SF, from Ganellin, C. R., & Durant, G. J. (1981). Histamine H2-receptor agonists and antagonists. Burgers Medicinal Chemistry, 3, 487-552.; conditions: pH 11.8
[4] = method code SF-AS, from DOI: 10.1016/0891-5849(94)00112-w, PMID: 7744299; conditions: pH 7.5
[5] = method code SF-TN, from Korenman, I M.; Lunicheva, V.; Pomerantseva, G.; Khairulina, D. (1974). Distribution of methacrylic acid between organic solvents and water. Zh. Prikl. Khim., 47(10)2432-2434.
[6] = method code SF-AS, from Ganga, L. X. J. S., & Zun-Yaob, L. H. W. (2009). Determination of lgKow and QSPR Study on Some Fluorobenzene Derivatives. Jiegou Huaxue, 28(10).
[7] = not given; remark: listed apart in the source
[8] = method code SF-HPLC, from DOI: 10.1016/0378-5173(93)90356-k; conditions: pH 7.4
[9] = method code SF-GLC, from Boikov, Yu.; Shibaev, V.; Gaidamaka, V.; V'yunov, K. (1989). Study of correlation between extraction characteristics of glycidyl ethers and theri structure. 62(1)177-179.
[10] = not given; remark: listed apart in the source
[11] = method code SF-GLC, from DOI: 10.1002/etc.5620080910
[12] = not given; remark: listed apart in the source
[13] = method code SF-GLC, from DOI: 10.1021/es00131a005
[14] = not given; remark: listed apart in the source
[15] = method code SF, from DOI: 10.1021/bk-1995-0606.ch003
[16] = method code SF-HPLC, from DOI: 10.1016/s0021-9673(01)88640-4
[17] = method code SF-AS, from DOI: 10.1021/jm0495273.s001, PMID: 15974600; conditions: pH 7.4
[18] = not given; remark: listed apart in the source
[19] = method code SF, from DOI: 10.1016/0005-2744(69)90103-x, PMID: 4387594
[20] = method code SF, from DOI: 10.1016/s0960-894x(00)80094-3; conditions: pH 7.4
[21] = method code SF-AS, from Kosanovic, D.; Dumanovic, D.; Jovanovic, J. (1988). Solubility in octanol And the octanol-water partition coefficients of some 4(5)- and 5-nitroimidazoles. 53(10)559-563.
[22] = not given; remark: listed apart in the source
[23] = method code SF-RC, from DOI: 10.1016/s0969-8051(01)00233-5, PMID: 11518650
[24] = method code SF-AS, from DOI: 10.1016/s0021-9673(01)89384-5
[25] = not given; remark: listed apart in the source
[26] = method code SF-GLC, from DOI: 10.1021/ac00241a023
[27] = not given; remark: listed apart in the source
[28] = method code SF-AS, from PMID: 2551304; conditions: pH 7.4
[29] = not given; remark: listed apart in the source
[30] = method code SF-AS, from DOI: 10.1016/0378-5173(93)90388-v
[31] = method code SF, from DOI: 10.1016/j.tca.2016.07.020; conditions: pH 7.4
[32] = method code SF-AS, from Lee, B.; Shin, J.; Lim, M.; Jang, T.; Park, J.; Kim, K.; Kang, W. (1997). Partition Property of 5-Nitrothiopyrimidine Nucleoside. Bull Korean Chem Soc, 18(7)734-736.; conditions: pH 7.0
[33] = method code G-HPLC, from DOI: 10.1016/s0021-9673(01)94303-1
[34] = from KURIHARA, Norio.; Fujita, Toshio. (1983). Composition of Partition Coefficients of Polychlorinated Hydrocarbons (Commemoration Issue Dedicated to Professor Yuzo Inouye on the Occasion of his …
[35] = method code SF, from Korenman, I. M.; Klyukvina, T. D. (1972). Extraction of methylfurfural from aqueous solutions. Zh. Prikl. Khim., 45(11)2697-2699.
[36] = not given; remark: listed apart in the source
[37] = not given; remark: listed apart in the source
[38] = method code SF-HPLC, from DOI: 10.1016/j.ejps.2013.10.002, PMID: 24161609
[39] = method code SF-TN, from DOI: 10.1007/bf00632830
[40] = method code SF-AS, from DOI: 10.1016/0039-9140(93)80165-n, PMID: 18965747; conditions: pH 2.0
[41] = not given; remark: listed apart in the source
[42] = method code SF-AS, from DOI: 10.1002/jps.2600600712, PMID: 4398902
[43] = method code SF-AS, from DOI: 10.1002/etc.5620181211
[44] = method code SF-CR+AS, from Korenman, I. (1982). The influence of substituents on the partition of phenols between water and organic solvents. Russ. J. Phys. Chem., 56(3)458-460.
[45] = method code SF-RC, from DOI: 10.1002/jps.2600800111, PMID: 2013848
[46] = method code SF-TN, from Korenman, I M.; Gurevich, N.; Kulagina, G. (1973). Extraction of certain n-alkylamines from aqueous solutions. Zh. Prikl. Khim., 46(3)726-728.
[47] = method code SF-HPLC, from DOI: 10.1016/0378-5173(83)90028-5
[48] = not given; remark: listed apart in the source
[49] = not given; remark: listed apart in the source
[50] = method code SF, from DOI: 10.1016/j.jiec.2010.03.003
[51] = method code SF-GLC, from DOI: 10.1002/jps.2600620103, PMID: 4734195
[52] = not given; remark: listed apart in the source
[53] = not given; remark: listed apart in the source
[54] = not given; remark: listed apart in the source

SMILES: O=C(O)c1cc(=O)[nH]c(=O)[nH]1
logP [1]: -0.83

SMILES: NCCc1nccs1
logD [2]: 0.16

SMILES: O=Nc1ccccc1
logD [4]: 1.86

SMILES: C=C(C)C(=O)O
logP [5]: 0.93

SMILES: Oc1c(Br)c(Br)c(Br)c(Br)c1Br
logP [7]: 5.3

SMILES: O=c1[nH]cc(F)c(=O)[nH]1
logD [8]: -0.7

SMILES: CCOCC1CO1 (stereo not given)
logP [9]: 0.27

SMILES: O=[N+]([O-])c1ccc(Cl)cc1Cl
logP [11]: 3.05

SMILES: Clc1ccc(Cl)c(Cl)c1Cl
logP [13]: 4.6

SMILES: COP(=O)(OC)OC=C(Cl)Cl
logP [14]: 1.4

SMILES: N#CN=[N+]([O-])c1cnccn1
logP [16]: 0.1

SMILES: Clc1cccc(C(Cl)(Cl)Cl)n1
logP [18]: 3.41

SMILES: NC1CCN(O)C1=O (stereo not given)
logD [20]: -3.52

SMILES: CN(C)CCCF
logP [23]: 1.27

SMILES: Oc1ccc(O)c(Cl)c1
logP [25]: 1.4

SMILES: Clc1cccc(Cl)c1Cl
logP [26]: 4.05

SMILES: CON=C(C#N)C(=O)NCC(=O)O
logP [27]: -0.58

SMILES: Nc1ccncc1F
logD [28]: 0.63

SMILES: CCC[N+](=O)[O-]
logP [29]: 0.86

SMILES: CC1CCC(=O)N1 (stereo not given)
logP [30]: -0.1

SMILES: CCCCBr
logP [33]: 2.75

SMILES: ClC1C=CCC(Cl)C1Cl (stereo not given)
logP [34]: 2.84

SMILES: O=[N+]([O-])c1cc(Cl)ccc1Cl
logP [36]: 3.09

SMILES: O=C(O)CNCP(=O)(O)O
logP [37]: -3.3

SMILES: O=C(O)[C@H](O)[C@@H](O)C(=O)O
logP [38]: -1.2

SMILES: CN(C)C
logP [39]: 0.27

SMILES: CC(C)(C)C(=O)O
logD [40]: 1.42

SMILES: S=C1CCCO1
logP [42]: 0.6

SMILES: Nc1cc([N+](=O)[O-])cc(Cl)c1O
logP [44]: 1.53

SMILES: CCCCN
logP [46]: 0.74

SMILES: O=[N+]([O-])O[C@@H]1CO[C@H]2[C@@H]1OC[C@@H]2O
logP [47]: -0.15

SMILES: CCOCCO
logP [48]: -0.28

SMILES: CC(C)C(C)O (stereo not given)
logP [51]: 1.28

SMILES: COP(=O)(OC)OC(Br)C(Cl)(Cl)Br (stereo not given)
logP [52]: 2.19

Continued, values first:

logD [3]: -0.7
SMILES: NCCc1c[nH]cn1

logP [6]: 2.26
SMILES: Fc1ccc(F)cc1

logP: -0.56
SMILES: Nc1cc(Cl)c(S(N)(=O)=O)cc1S(N)(=O)=O

logP [10]: -0.04
SMILES: Cc1nccn1C

logP [12]: 1.08
SMILES: COC(=O)c1ccco1

logP [15]: 1.59
SMILES: CCc1ccc[nH]1

logD [17]: -0.16
SMILES: Nc1nc(S)c2[nH]cnc2n1

logP [19]: 1.26
SMILES: Nc1ccccc1F

logP [21]: 0.9
SMILES: CC(C)c1nc([N+](=O)[O-])c[nH]1

logP [22]: -0.22
SMILES: Cn1cc[nH]c1=S

logP [24]: -0.55
SMILES: Cc1nccnn1

logD [31]: 0.61
SMILES: NC(=S)c1ccncc1

logD [32]: -0.86
SMILES: S=c1cc[nH]c(=S)[nH]1

logP [35]: 0.67
SMILES: Cc1ccc(C=O)o1

logP [41]: 1.46
SMILES: CNC(=O)N(C)c1nnc(C(F)(F)F)s1

logP [43]: 0.01
SMILES: Cc1cccnc1N

logP [45]: -2.16
SMILES: Nc1ccc(S(=O)(=O)O)cc1

logP [49]: 0.03
SMILES: Nc1cc(N=O)ccc1O

logP [50]: 1.41
SMILES: COC(C)(C)C

logP [53]: 0.61
SMILES: Oc1ccc(O)cc1

logP [54]: 0.28
SMILES: Nc1cccc(O)c1
